Some test systems named below: ACHN renal; EKVX NSCLC; KM12 colon; NCI-H23 lung; OVCAR-5 ovarian; SK-MEL-28 melanoma; UACC-62 melanoma; UO-31 renal; COLO 205 colon; MCF7 breast.
Common to all, as to experiment: growth of human tumour cells (NCI), 48 h

Structures are written as SMILES. Where “and” joins values, the source holds several entries; their conditions need not be identical. Identical values can stand only once.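 Assay format: 96-well plates, 48-hour exposure. GI50 is the concentration that inhibits growth by half. Definition used: TGI = concentration required for complete inhibition of growth.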

Here are results for 19 molecules from PubChem BioAssay (NCI).

On to `CC(C)=CC1C(COC(=O)c2ccccc2Cl)C1(C)C` (stereo unspecified), for which the TGI is over 100 µM in the experiment on ACHN renal; 92.6 µM in the experiment on EKVX NSCLC; 99.1 µM in the experiment on KM12 colon; over 100 µM with NCI-H23 lung; over 100 µM in the experiment on OVCAR-5 ovarian; over 100 µM with SK-MEL-28 melanoma. Further, the TGI with UACC-62 melanoma and in the experiment with UO-31 renal was over 100 µM each time.
On to `CCN(CC)CCCC(C)Nc1c2ccc(Cl)cc2nc2cc(Cl)ccc12` (stereo unspecified), for which the TGI in the experiment with COLO 205 colon was 5.01 µM; in the experiment with EKVX NSCLC, 29.8 µM; with KM12 colon, 9.29 µM; in the experiment on MCF7 breast, 9.49 µM; in the experiment with NCI-H23 lung it was 20.8 µM; in the experiment on OVCAR-5 ovarian, 21.2 µM. The TGI was found to be 15.8 µM in the experiment with SK-MEL-28 melanoma, 16.1 µM in the experiment on UACC-62 melanoma and 11.5 µM in the experiment with UO-31 renal.
As for `CSC1=C(SC)C(=O)c2cn(C)c(=O)cc2C1=O`, the TGI in the experiment on ACHN renal amounted to 3.32 µM; in the experiment with COLO 205 colon it was 2.89 µM; with EKVX NSCLC, 33.6 µM; in the experiment with KM12 colon, 48.3 µM; in the experiment on MCF7 breast, 4.49 µM; in the experiment on NCI-H23 lung it was 11.1 µM. In addition, the TGI was found to be 35.2 µM with OVCAR-5 ovarian, 6.69 µM in the experiment on SK-MEL-28 melanoma, 7.21 µM in the experiment on UACC-62 melanoma and 3.13 µM in the experiment with UO-31 renal.
As for `O=S(=O)(Nc1nccs1)c1ccc([As](=O)(O)O)cc1`, the TGI with ACHN renal, with COLO 205 colon, with EKVX NSCLC, in the experiment on KM12 colon, in the experiment with MCF7 breast and in the experiment with NCI-H23 lung was over 100 µM in each case. Moreover, the TGI in the experiment on OVCAR-5 ovarian, in the experiment on SK-MEL-28 melanoma, in the experiment on UACC-62 melanoma and in the experiment with UO-31 renal was over 100 µM throughout.
Regarding `CC(C)C(=O)Nc1ccc(-c2nc(-c3cccc(OCCN4CCOCC4)c3)c(-c3ccnc(Br)c3)[nH]2)cc1`, the GI50 is 3.87 µM in the experiment with ACHN renal; 2.42 µM with COLO 205 colon; 4.01 µM with EKVX NSCLC; 3.2 µM in the experiment on KM12 colon; 1.89 µM in the experiment with MCF7 breast; 3.12 µM in the experiment on NCI-H23 lung. The GI50 with OVCAR-5 ovarian is 6.42 µM; in the experiment with SK-MEL-28 melanoma, 1.98 µM; in the experiment with UACC-62 melanoma, 2.1 µM; with UO-31 renal it was 2.36 µM. In addition, the TGI in the experiment on ACHN renal is 94.1 µM; in the experiment with COLO 205 colon, 6.59 µM; in the experiment on EKVX NSCLC, over 100 µM; in the experiment on KM12 colon, over 100 µM; with MCF7 breast, 4.92 µM; with NCI-H23 lung it was 18 µM. The TGI was over 100 µM in the experiment on OVCAR-5 ovarian, 5.02 µM with SK-MEL-28 melanoma, 5.71 µM in the experiment on UACC-62 melanoma and 7.23 µM in the experiment with UO-31 renal.
Consider `COc1ccc(N2C(=O)C(=O)N(C)C2=O)c2ccccc12`, for which the TGI with ACHN renal, with COLO 205 colon, in the experiment on EKVX NSCLC, with KM12 colon, in the experiment on MCF7 breast and in the experiment with NCI-H23 lung was over 10 µM each time. Further, the TGI in the experiment with OVCAR-5 ovarian, with SK-MEL-28 melanoma, with UACC-62 melanoma and with UO-31 renal was over 10 µM each time.
Consider `CC(C(=O)NCCNC(=O)CCCC(=O)N(C)O)C(=O)NCCNC(=O)CCCC(=O)N(C)O`, for which the TGI with ACHN renal, in the experiment with COLO 205 colon, in the experiment on EKVX NSCLC, with KM12 colon, in the experiment on MCF7 breast and in the experiment with NCI-H23 lung was over 100 µM each time. Also, the TGI in the experiment with OVCAR-5 ovarian, in the experiment with SK-MEL-28 melanoma, in the experiment with UACC-62 melanoma and with UO-31 renal was over 100 µM each time.
Regarding `CC(=O)Nc1c2sscc-2n(C)c1=O`, the TGI with ACHN renal came out at 12.1 µM; in the experiment on COLO 205 colon, 1.84 µM; with EKVX NSCLC, 3.68 µM; in the experiment with KM12 colon, 2.6 µM; in the experiment with MCF7 breast, 1.69 µM; with NCI-H23 lung it was 2.28 µM. Also, the TGI with OVCAR-5 ovarian came out at 3 µM; in the experiment on SK-MEL-28 melanoma it was 2.69 µM; with UACC-62 melanoma, 5.36 µM; in the experiment with UO-31 renal, 3.58 µM.
In the case of `CC[C@@]1(O)C(=O)OCc2c1cc1n(c2=O)Cc2cc3c(CN(C)C)c(O)ccc3nc2-1`, the GI50 was < 0.01 µM and 0.00474 µM and 0.0188 µM with ACHN renal; 0.384 µM and 0.089 µM and 0.855 µM in the experiment on COLO 205 colon; 0.452 µM and 0.468 µM and 2.16 µM with EKVX NSCLC; 0.15 µM and 0.413 µM and 0.35 µM in the experiment on KM12 colon; under 0.01 µM in the experiment on MCF7 breast; 0.0088 µM and 0.0362 µM in the experiment with NCI-H23 lung. The GI50 in the experiment on OVCAR-5 ovarian was 0.168 µM and 0.217 µM and 0.407 µM; in the experiment on SK-MEL-28 melanoma it was 0.299 µM and 1.36 µM; with UO-31 renal, 0.0169 µM and 0.118 µM and 0.0299 µM. The TGI with COLO 205 colon was 4.85 µM [middle of 4 runs]; in the experiment on KM12 colon it was 7.58 µM and 15.1 µM and 12.2 µM; in the experiment with UO-31 renal, 0.273 µM and 1.89 µM and 0.607 µM.
As for `COC1=CC(=O)c2c(c(COC(C)=O)cn2C)C1=O`, the TGI amounted to 0.173 µM with ACHN renal; 0.0943 µM with COLO 205 colon; 0.727 µM in the experiment with EKVX NSCLC; 0.763 µM in the experiment on KM12 colon; 2.5 µM in the experiment on MCF7 breast; 0.417 µM with NCI-H23 lung. Also, the TGI in the experiment with OVCAR-5 ovarian was determined as 0.0689 µM; in the experiment with SK-MEL-28 melanoma, 0.516 µM; in the experiment with UACC-62 melanoma, 0.283 µM; in the experiment on UO-31 renal it was 0.551 µM.
Regarding `OC(c1ccccc1)C1CC2C=CC1C2` (stereo unspecified), the TGI with ACHN renal, with COLO 205 colon, in the experiment with EKVX NSCLC, in the experiment with KM12 colon, in the experiment on NCI-H23 lung and in the experiment with OVCAR-5 ovarian was over 100 µM each time. Besides, the TGI with SK-MEL-28 melanoma, with UACC-62 melanoma and in the experiment with UO-31 renal was over 100 µM in each case.
Turning to `CC1(CO)C(O)CCC2(C)C1C(O)CC1CC3CC12CCC3(O)CO` (stereo unspecified), the TGI in the experiment on COLO 205 colon, with EKVX NSCLC, in the experiment on KM12 colon, in the experiment with MCF7 breast, with NCI-H23 lung and in the experiment on OVCAR-5 ovarian was over 225 µM throughout. For the same molecule, the TGI with SK-MEL-28 melanoma, in the experiment with UACC-62 melanoma and in the experiment on UO-31 renal was over 225 µM each time.
For the molecule `O=[N+]([O-])c1ccc(Cc2nc3cc4ccccc4cc3[nH]2)cc1C(F)(F)F`, the TGI with ACHN renal is 29.3 µM; in the experiment with COLO 205 colon, 34.3 µM; with EKVX NSCLC it was over 100 µM; with KM12 colon, 30.3 µM; with MCF7 breast it was 55.5 µM; in the experiment on NCI-H23 lung, 25.7 µM. Also, the values for the TGI in the experiment with OVCAR-5 ovarian, in the experiment on SK-MEL-28 melanoma and with UO-31 renal were 27.5 µM, over 100 µM and 40.4 µM, respectively.
With `O=[N+]([O-])c1ccc(NNN=Nc2ccc(-c3nc4ccccc4[nH]3)cc2)c([N+](=O)[O-])c1`, the TGI in the experiment with ACHN renal was over 100 µM; with COLO 205 colon, over 100 µM; in the experiment with EKVX NSCLC, 96.4 µM; in the experiment with KM12 colon it was over 100 µM; in the experiment with MCF7 breast it was 57.6 µM; with NCI-H23 lung it was over 100 µM. Also, the TGI was over 100 µM in the experiment with OVCAR-5 ovarian, over 100 µM with SK-MEL-28 melanoma, 38 µM in the experiment on UACC-62 melanoma and over 100 µM in the experiment with UO-31 renal.
Regarding `O=c1ccc2c(Cl)cccc2o1`, the TGI in the experiment on ACHN renal, with COLO 205 colon, in the experiment with EKVX NSCLC, with KM12 colon, with MCF7 breast and in the experiment on NCI-H23 lung was over 100 µM each time. Further, the TGI in the experiment on OVCAR-5 ovarian, with SK-MEL-28 melanoma, in the experiment on UACC-62 melanoma and in the experiment on UO-31 renal was over 100 µM throughout.
For `CN(CC(=O)O)CC(=O)O`, the TGI in the experiment on ACHN renal, in the experiment on COLO 205 colon, with EKVX NSCLC, in the experiment with KM12 colon, in the experiment with MCF7 breast and in the experiment with NCI-H23 lung was over 100 µM in each case. Also, the TGI in the experiment with OVCAR-5 ovarian, with SK-MEL-28 melanoma, in the experiment with UACC-62 melanoma and in the experiment with UO-31 renal was over 100 µM each time.
As for `Clc1ccc(OCc2nnc3sc(SSc4nn5c(COc6ccc(Cl)cc6)nnc5s4)nn23)cc1`, the TGI in the experiment on ACHN renal, in the experiment with COLO 205 colon, in the experiment on EKVX NSCLC, with KM12 colon, in the experiment with MCF7 breast and in the experiment on NCI-H23 lung was over 100 µM each time. Further, the TGI in the experiment with OVCAR-5 ovarian, in the experiment on SK-MEL-28 melanoma, with UACC-62 melanoma and in the experiment on UO-31 renal was over 100 µM throughout. Also, the GI50 was 45 µM with MCF7 breast and 44.7 µM in the experiment with UACC-62 melanoma.
For the molecule `Fc1ccc(Nc2ncc(-c3cc(F)c(Cl)cc3Cl)s2)cc1Cl`, the GI50 in the experiment with ACHN renal was 19.3 µM; in the experiment on COLO 205 colon, 28.5 µM; with EKVX NSCLC, 16.3 µM; with KM12 colon, 2.69 µM; in the experiment with NCI-H23 lung, 14.1 µM; in the experiment on OVCAR-5 ovarian it was 15.8 µM. The figures for the GI50 in the experiment with SK-MEL-28 melanoma, with UACC-62 melanoma and in the experiment with UO-31 renal were 79.9 µM, 8.41 µM and 17.1 µM, respectively. For the same molecule, the TGI in the experiment on ACHN renal was 51.5 µM; in the experiment on COLO 205 colon it was over 100 µM; in the experiment with EKVX NSCLC, 31.3 µM; in the experiment with KM12 colon, 13.3 µM; in the experiment with MCF7 breast, 2.48 µM; in the experiment on NCI-H23 lung it was 28.1 µM. The TGI was 30.5 µM with OVCAR-5 ovarian, over 100 µM in the experiment with SK-MEL-28 melanoma, 26.5 µM in the experiment with UACC-62 melanoma and 42.1 µM in the experiment on UO-31 renal.
Regarding `C1=Nc2ccccc2Cn2nncc21`, the TGI in the experiment on ACHN renal, with COLO 205 colon, in the experiment on EKVX NSCLC, in the experiment with KM12 colon, in the experiment on NCI-H23 lung and with OVCAR-5 ovarian was over 100 µM in each case. For the same molecule, the results for the TGI in the experiment with SK-MEL-28 melanoma, with UACC-62 melanoma and in the experiment with UO-31 renal were over 100 µM, 55.3 µM and over 100 µM, respectively.
